One data set can be described thus: in vitro. The class given is cell-based. The procedure:
The cytotoxcity assays were performed as described previously. The fitted dose-response curves were generated to calculate EC50 or CC50 using Origin software (OriginLab, Inc.).

The subject of the next data set is A128T IN HIV-1NL4-3. As to the kind of experiment: A128T HIV-1 infectivity in TZM-bl cells. The conditions noted are these: particles produced in presence of inhibitor. The class given is cell-based.
Data set [1] has as its target T1, IN-LEDGF/p75 (Human immunodeficiency virus type 1 group M subtype B, UniProt P12497). The arrangement: method as in PMID 22437836. The conditions noted are these: HTRF; read-out: IC50 for IN-LEDGF/75 binding; cited from earlier work.
Data set [2] has as its target T2, HIV-1 IN (Human immunodeficiency virus type 1 group M subtype B, UniProt P12497). Set-up: DLS analysis of KF116-induced multimerization of recombinant IN; method as in PMID 22437836. The following applies: HTRF; read-out: EC50 for aberrant IN multimerization; cited from earlier work.
In data set [3] the test system is HIV-1NL4-3. Put plainly: microbe, parasite or virus in culture. The data set is classed as cell-based. The following applies: for Selectivity Index, CC50/IC50: CC50 for cytotoxicity by IC50 for antiviral activity.
Data set [4] concerns the target T2, HIV-1 IN. The conditions noted are these: IC50 for inhibiting IN-LEDGF/p75 binding divided by EC50 for aberrant IN multimerization; fold.
Experimental: (§1) HTRF-based IN multimerization and IN-LEDGF/p75 binding assays were carried out as described previously [33]. The HTRF signal was recorded using a Perkin Elmer Multimode EnSpire plate reader.
The test system of data set [5] is HIV-1NL4-3. The following applies: cited from earlier work.
For data set [6], the system named is HIV-1. Set-up: method as in PMID 24040198. The following applies: ref 41; read-out: IC50 in target cells; cited from earlier work.
Data set [7] has as its system HIV-1. Put plainly: Antiviral assay, late stage (inhibitor added to producer cells). The data set is classed as cell-based. The conditions noted are these: Human immunodeficiency virus 1, virions prepared in presence of inhibitor, untreated target cells; called IC50.
Experimental: Results represent mean ± SD from three independent experiments.
For late stage experiments, the progeny virions were prepared in the presence of the indicated concentrations of the test inhibitor or diluent control (DMSO) and were then used to infect untreated target cells.
Data set [8] has as its system LEDGF/p75-dependent HIV-1 integration. As to the kind of experiment: HIV-1 integration site distribution (ligation-mediated PCR, 454-pyrosequencing). The class given is cell-based.
The subject of data set [9] is VSV-G pseudotyped HIV-1-Luc in PSIP1 KO HEK293T cells. As to the kind of experiment: microbe, parasite or virus in culture. The data set is classed as cell-based.
Another data set deals with HIV-1 expression. The data set is classed as cell-based. The following applies: for inhibition of HIV-1 expression: target cells.
The target in data set [10] is T2, HIV-1 IN. Put plainly: biochemical.
Experimental: as §1
For data set [11], the target named is T1, IN-LEDGF/p75. Put plainly: HTRF-based IN-LEDGF/p75 binding assay. Set-up: species or system HIV-1.
Experimental: HTRF-based IN multimerization and IN-LEDGF/p75 binding assays were carried out as described previously [33].
The subject of data set [12] is VSV-G pseudotyped HIV-1-Luc. The class given is cell-based.
Data set [13] deals with the molecule itself. As to the kind of experiment: AlphaScreen or HTRF; HTRF-based IN multimerization assay in vitro, compound (KF115 or KF116) titrated; carried out as described in ref. 33.
Data set [14] deals with the molecule itself. Put plainly: cross-linking; concentrated, detergent-lysed virions (50 ng p24) from HEK293T cells treated with DMSO or 1 µM KF116; 50 µM BS3; SDS-PAGE and immunoblot with HIV-1 IN antibody.
[15] abbreviates: ref 33, 41, read-out: antiviral activity IC50.
The mark [16] stands for this setting: Target, 5 µM, *** P<0.001 vs DMSO.
Where [17] appears, read: target cells, 10 µM, *** P<0.001 vs DMSO.

Read-outs that look alike come from different tables or passages of the source.

The values that follow come from PMC4038613, “A New Class of Multimerization Selective Inhibitors of HIV-1 Integrase” (PLoS Pathogens, 2014).

For `COC(C(=O)O)c1c(C)nc2ccc(Br)cc2c1-c1ccc(Cl)cc1` (stereo not drawn) [BI-1001, reference compound], the CC50 in “in vitro” is > 100000 nM. Besides, the “A128T IN HIV-1NL4-3 replication in infected cells” value in the data set on A128T IN HIV-1NL4-3 is reported as “marked resistance”. In addition, the IC50 at IN-LEDGF/p75 [1] is 1000 ± 100 nM; in the data set with HIV-1NL4-3 [5] (setting [15]) it was ~5800 nM; in the data set with HIV-1NL4-3 [5] (ref 33, read-out: Antiviral activity (IC50)), 5800 ± 100 nM. The EC50 at HIV-1 IN [2] was 4900 ± 300 nM. For the same molecule, the “Selectivity Index, CC50/IC50” value in the data set on HIV-1NL4-3 [3] is listed as >17. Besides, on HIV-1 IN [4], the “Selectivity ratio, IC50 IN-LEDGF/EC50 aberrant IN multimerization” value was 0.2.

`Cc1nc2ccccc2c(-c2cc(F)c3c(c2C)CCCO3)c1[C@H](OC(C)(C)C)C(=O)O` [GS-B, reference compound]: the values for the IC50 with HIV-1 [6] and in the data set on HIV-1NL4-3 [5] (setting [15]) were ~700 nM and ~26 nM, respectively. Further, the EC50 in the data set on HIV-1 [7] is 39 nM; in the data set with HIV-1NL4-3 [5] (same value given in b14 with ref 33, 41, read-out: EC50 for full replication cycle) it was ~26 nM. Further, the “% in RefSeq (HIV-1 integration frequency)” value came to 84.00% in [8] (Producer, 100 nM); 73.83% in data set [8] (setting [16]); 74.76% in data set [8] (setting [17]). In addition, the “% in known genes (HIV-1 integration frequency)” value in data set [8] (Producer, 100 nM) is on record as 85.71%; in data set [8] (setting [16]), 75.74%; in data set [8] (setting [17]), 77.39%. In data set [9], the “effect of complete loss of LEDGF/p75 protein in virus-producer cells on IC50 values” is “did not alter”. The “inhibition of HIV-1 expression” value was ~71% with HIV-1 expression (5 µM) and ~88% in the data set with HIV-1 expression (10 µM). Moreover, the “reduction in target cell HIV-1 expression” value with HIV-1 expression (virus-producer cells treated with 0.1 µM) was ~77%.

As to `Cc1ccc(-c2nc(C)c(C(OC(C)(C)C)C(=O)O)c(-c3ccc(Cl)cc3)c2C)cc1C` (stereo not drawn) [KF115], in “in vitro”, the CC50 is > 100000 nM. Moreover, on HIV-1 IN [10], the EC50 came out at 274 ± 25 nM. In addition, the IC50 on IN-LEDGF/p75 [11] was 13000 ± 1500 nM; in the data set with HIV-1NL4-3 [3] (Human immunodeficiency virus 1, read-out: Antiviral activity (IC50), HIV-1NL4-3, full replication cycle), ~121 nM. Also, in the data set on HIV-1NL4-3 [3], the “Selectivity Index, CC50/IC50” value is >826. Further, the “Selectivity ratio, IC50 IN-LEDGF/EC50 aberrant IN multimerization” value on HIV-1 IN [4] is on record as 47.4.

In the case of `Cc1nnc(C(=O)NC(C)(C)c2nc(C(=O)NCc3ccc(F)cc3)c(O)c(=O)n2C)o1` [RAL, Raltegravir, reference compound], in data set [12], the “effect on replication intermediates in target cells of virions produced in presence of inhibitor” value is reported as “no inhibitory effects”; the “effect on replication intermediates when inhibitor added to target cells” value was “selectively inhibited the integration step and increased the levels of 2-LTRs”.

B1: HIV-1 integrase (recombinant IN) (enzyme)
chain: FLDGIDKAQEEHEKYHSNWRAMASDFNLPPVVAKEIVASCDKCQLKGEAMHGQVDCSPGIWQLDCTHLEGKVILVAVHVASGYIEAEVIPAETGQETAYFLLKLAGRWPVKTVHTDNGSNFTSTTVKAACWWAGIKQEFGIPYNPQSQGVIESMNKELKKIIGQVRDQAEHLKTAVQMAVFIHNFKRKGGIGGYSAGERIVDIIATDIQTKELQKQITKIQNFRVYYRDSRDPVWKGPAKLLWKGEGAVVIQDNSDIKVVPRRKAKIIRDYGKQMAGDDCVASRQDED
notes: also called WT IN; source: recombinant
As for B1, in [13], the “EC50 of KF115 for aberrant IN multimerization (with KF115)” value was 274 nM and the “EC50 of KF116 for aberrant IN multimerization (with KF116)” value came out at 86 nM.

B2: HIV-1 integrase in virus particles (enzyme)
chain: B1 chain
notes: also called virion-associated IN
As for B2, the “stoichiometry N” value in data set [14] worked out at 2.
